Values quoted from earlier work, collected in patent publication US20090076140A1, “PHARMACEUTICAL COMPOSITIONS CONTAINING SULPHONIC ACID DERIVATIVES” (ITALFARMACO, S. A., priority 2003, published 2009).

How the values were obtained:
[1] = target: T1, aFGF (Homo sapiens, UniProt P05230); settings: literature (Pesenti et al.; Cuevas et al.); cited from earlier work
Target sequence in this assay (P05230 whole entry, species assumed): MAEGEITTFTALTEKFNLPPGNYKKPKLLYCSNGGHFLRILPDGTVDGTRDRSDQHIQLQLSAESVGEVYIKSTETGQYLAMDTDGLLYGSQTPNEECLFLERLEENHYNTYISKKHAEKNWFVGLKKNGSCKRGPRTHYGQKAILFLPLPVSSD

[2] = target: T1, aFGF; settings: in vitro and in vivo; cited from earlier work
Target sequence in this assay (P05230 whole entry, species assumed): as above

[3] = target: T1, aFGF; parameters: the aFGF of 139 amino acid residues; settings: Lozano et al. (1998); cited from earlier work
Target sequence in this assay (P05230 16-155 limits assumed): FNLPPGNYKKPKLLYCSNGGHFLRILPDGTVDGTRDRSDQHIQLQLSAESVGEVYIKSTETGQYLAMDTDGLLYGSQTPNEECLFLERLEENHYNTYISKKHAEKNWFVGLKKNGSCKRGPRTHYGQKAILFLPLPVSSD

O=S(=O)(O)c1ccc2c(S(=O)(=O)O)cc(S(=O)(=O)O)cc2c1 [1,3,6-NTS, 1,3,6-naphthalenetrisulfonic acid]
concentration required to reach substantial neovascularization inhibition [1]: about 200 mg/kg
aFGF-induced angiogenesis and glioma proliferation inhibition (literature) [2]: positive results
aFGF-induced mitogenic activity inhibition (literature) [3]: aFGF-induced mitogenic activity inhibitors
